{"source": "patent US20040009947A1", "about": "“Compounds and methods for enhancing delivery of free polynucleotide” (priority 1998, published 2004)", "key": {"16HBE14o": {"test_system": "16HBE14o", "assay": "Transfection of cultured cells with DNA/DOTAP +/- ATA, luciferase assay", "assay_type": "cell-based, human", "settings": "very highest doses 80 μg/ml, 40 μg/ml, 10 μg/ml", "description": "The human respiratory epithelial cell line, 16HBE14o (Dieter Grunert, UCSF) was cultured on flasks coated with fibronectin (Collaborative Research-Bectin Dickinson), vitrogen (Collagen Corp), basal media (Biofluids, Inc.) and bovine serum albumen (Biofluids, Inc.) as previously described [Gruenert, 1990 #7; Cozens, 1994 #8]. Cells were cultured on twenty four well tissue culture plates (Corning) coated with the above mixture. Culture media was Eagle's modified essential medium (EM) supplemented with 10% fetal bovine serum. 16HBE 14o cells were plated at a density of 5×10^4 cells/ml 24 hours prior to transfection and cells were transfected as subconfluent monolayer. […]\n(§1) Relative luciferase activity was determined using the Enhanced Luciferase Assay Kit and Monolight 2010 luminometer (Analytical Luminescence Laboratories, San Diego, Calif.). […] For In vitro experiments, luciferase light emissions from 20 μl of the cell lysate were measured over a 10 second period, and results expressed as a function of the total lysate volume. For in vivo experiments, luciferase light emissions from […] of the lysate were measured over a 10 second period, and results expressed as a function of the total lysate volume."}, "Macaque Skin": {"test_system": "Macaque Skin", "assay": "Intradermal injection of luciferase DNA into macaque skin +/- ATA", "assay_type": "in vivo", "settings": "100 μg plasmid and 50 μg ATA intradermal versus plasmid alone", "description": "To further confirm the utility of nuclease inhibitors in combination with direct DNA delivery, the activity of free plasmid DNA +/− ATA in skin tissues was tested. The plasmid and animal protocols were identical to those described above. Intradermal injections were performed by injecting 100 μl solutions using 30 gauge needle.\nThe experiment was further extended from murine to primate, testing direct intradermal injection on macaques. The control solution was identical to that described for the mice and rat protocols. The test solution contained 100 μg of pND21ux plasmid and 50 μg of ATA in 100 μl water. Ten macaques were included in the control group and twelve were included in the test group."}, "[1]": {"assay": "Toxicity of intratracheal ATA/plasmid in mice (lethality, health assessment, lung histology)", "assay_type": "in vivo, mouse", "settings": "for mice died: within 8 to 24 hours, pilot experiments", "description": "Dose-response experiments can be used to efficacy, toxicity, and effective dose of a particular enhancing agent or polynucleotide preparation. […] Histologic evaluation of treated lung tissue was subsequently performed. […] ATA is often employed for inhibition of cultured cell apoptosis, but relatively few publications describe in vivo applications. In vivo dosing employed in published reports ranges from 4 micrograms administered to the […] cerebral ventricle of gerbils to 10 mg/kg/hour continuous infusion in a hamster carotid stenosis model Based on this literature, a dose range from 0.1 mg/kg to 8 mg/kg ATA administered with 100 micrograms of plasmid was tested. […] Subsequent histologic examination was performed using lung tissue obtained from mice treated with up to 5 mg/kg ATA.\nTo obtain information about toxicity, mouse lung tissue was treated with ATA +/− plasmid and routine histologic analyses were performed. […] Therefore, intratracheal instillation of plasmid +/− ATA was performed, and two days later the treated tissues were histologically analyzed after inflation and fixation in formalin followed by routine hematoxylin and eosin staining in paraffin sections. Treatment groups included untreated controls, 100 μl of water for injection (WFI), 100 μg of pND2Lux diluted in WFI, and plasmid with […] body mass diluted in WFI. The images shown in FIG. 9 are representative photomicroscopic fields that include both conducting airway and pulmonary parenchyma."}, "[2]": {"test_system": "macaque respiratory tissues", "assay": "Bronchoscopic administration of plasmid +/- ATA to macaque lung, luciferase assay and histology", "assay_type": "in vivo", "settings": "48 hours after treatment, H&E", "description": "Extending the experiment from murine to nonhuman primate respiratory tissues, the activity of ‘free’ plasmid DNA +/− ATA in macaque respiratory tissues using male rhesus macaques was tested. Initially, the lavage fluid is tested for DNAse activity +/− ATA by incubation with plasmid after which gel electrophoresis is performed as described above with murine lung lavage samples. After a 70 day quarantine, the animals are treated using three general techniques. For direct administration of […] to pulmonary parenchyma, macaques are anesthetized (ketamine, veterinarian assisted) and a pediatric bronchoscope will be passed per nasum with direct visualization of the bronchial tree. Typically, plasmid preparations (3 ml/Kg macaque weight) or related treatments (plasmid/ATA mixtures etc.) are instilled directly via the bronchoscope into the right lower lobe. The left upper lobe of the same macaque is used as an internal control. […]\nAs described above, relative luciferase activity is determined using the Enhanced Luciferase Assay Kit and a Monolight 2010 luminometer (both from Analytical Luminescence Laboratories, San Diego, Calif.). […] Luciferase light emissions from 31 microliters of the lysate are measured over a 10 second period, and results are expressed as a function of total protein, total tissue mass, and total DNA dose."}, "mouse lung": {"test_system": "mouse lung", "assay": "Intratracheal plasmid transfection of mouse lung, luciferase reporter assay of lung homogenate", "assay_type": "in vivo", "settings": "for Level of reporter protein expression after intratracheal administration of plasmid, enhancement by co-administration: intratracheal plasmid with DNAse inhibitor, mouse lung"}, "NIH3T3": {"test_system": "NIH3T3", "assay": "Transfection of cultured cells with DNA/DOTAP +/- ATA, luciferase assay", "assay_type": "cell-based", "settings": "very highest doses 80 μg/ml, 40 μg/ml, 10 μg/ml", "description": "NIH3T3 (ATCC CRL 1658) were grown in Dulbecco's Modified Eagle's Medium and 10% calf serum. NIH3T3 were also plated at a density of 5×10^4 cells/ml in 24 well plates 24 hours prior to transfection and cells were transfected as subconfluent monolayer.\nThe sequential addition of appropriate amounts of serum-free DMEM, plasmid DNA ([…]), ATA in serum-free DEM and filter sterilized (see below for doses), and DOTAP (DOTAP:DNA formulation of 5 μg: 1 μg) were pippetted into a 2 ml Eppendorf tube to give a total volume of […] and mixed with a vortex mixer. A […] aliquot of the resultant transfection complex was added to each well of the cells above after the cell media had been aspirated off. The cells were incubated for 2 hours at 37° C. At the two hour time point, the mixture was removed and one ml of culture media was added to each well. […]\nas §1"}}, "note": "“Also recorded” adds a separate entry of the source. Structures can show the parent of a compound that is named as a salt.", "data": [{"smiles": "O=C(O)C1=CC(=C(c2ccc(O)c(C(=O)O)c2)c2ccc(O)c(C(=O)O)c2)C=CC1=O", "note": "[ATA, aurin tricarboxylic acid]", "values": [{"measurement": "Toxicity to cells", "setting": "16HBE14o", "result": "toxic and killed cells"}, {"measurement": "enhancement of reporter gene expression, test group on average", "setting": "Macaque Skin", "result": 11, "unit": "fold"}, {"measurement": "lethality due to the ATA", "setting": "[1]; 2 mg/kg ATA or lower doses, during the 48 hours after treatment", "result": "no lethality"}, {"measurement": "mice died", "setting": "[1]; 6 mg/kg ATA intratracheal with 100 micrograms plasmid", "result": 50, "unit": "%"}, {"measurement": "mice died", "setting": "[1]; 8 mg/kg ATA intratracheal with 100 micrograms plasmid", "result": 100, "unit": "%"}, {"measurement": "pulmonary dose associated with significant mortality", "setting": "[1]; intratracheal, mouse", "result": "> 2", "unit": "μg/g body weight"}, {"measurement": "Lung histology (H&E) after intratracheal plasmid +/- ATA", "setting": "[1]; mouse lung, two days after treatment, plasmid with 0.5 or 6 mg ATA/g body mass", "result": "indistinguishable; also recorded: virtually nontoxic to the lung; also recorded: No significant histologic alterations"}, {"measurement": "Health assessment of mice after transfection", "setting": "[1]; up to 48 hours after transfection", "result": "healthy with no physical or behavioral side effects observed"}, {"measurement": "Histologically apparent acute toxicity", "setting": "[2]", "result": "lack of histologically apparent acute toxicity"}, {"measurement": "increase over free DNA transfections", "setting": "mouse lung; doses of ATA virtually nontoxic to the lung", "result": 57, "unit": "%"}, {"measurement": "Toxicity to cells", "setting": "NIH3T3", "result": "toxic and killed cells"}]}, {"smiles": "O=C(O)CN(CCN(CC(=O)O)CC(=O)O)CC(=O)O", "note": "[EDTA, ethylenediaminetetraacetic acid]", "values": [{"measurement": "Level of reporter protein expression after intratracheal administration of plasmid, enhancement by co-administration", "setting": "mouse lung", "result": "Neither EDTA nor citrate significantly enhanced the level of expression"}]}, {"smiles": "O=C(O)CC(O)(CC(=O)O)C(=O)O", "note": "[sodium citrate]", "values": [{"measurement": "Level of reporter protein expression after intratracheal administration of plasmid, enhancement by co-administration", "setting": "mouse lung; listed as citrate", "result": "Neither EDTA nor citrate significantly enhanced the level of expression"}]}]}
